This passage reports GI50 and TGI results from PubChem BioAssay (NCI).

Assay in all cases: DTP human tumour cell line panel, 48 h
The test system of experiment [1] is HCT-15 colon.
The test system of experiment [2] is IGROV1 ovarian.
The test system of experiment [3] is K-562 leukemia.
For experiment [4], the system named is MALME-3M melanoma.
The test system of experiment [5] is OVCAR-8 ovarian.
For experiment [6], the system named is SF-295 CNS.
Experiment [7] has as its system SK-MEL-5 melanoma.
The test system of experiment [8] is SR leukemia.
Experiment [9] concerns TK-10 renal.
The test system of experiment [10] is U251 CNS.

SMILES strings stand for the structures. Where “and” joins values, the source holds several entries; their conditions need not be identical. Equal values may be shown once.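 Cultured in 96-well plates, cells were exposed to test compound for 48 hours across five concentrations. GI50 is the concentration that inhibits growth by half. At the TGI there is no net growth.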 Bounds are passed on as bounds.

For orientation: GI50 means the concentration at which growth is held to half of that of the control. The term TGI denotes the concentration giving total growth inhibition. As for `CC(C)NC[C@@H](C(=O)N1CCN(c2ncnc3c2[C@H](C)C[C@H]3O)CC1)c1ccc(Cl)cc1`, the GI50 is > 10 µM and 44.8 µM in experiment [1]; 0.156 µM and 0.203 µM in [2]; > 10 µM and 48.1 µM in experiment [3]; > 10 µM and 4.54 µM in [4]; > 100 µM in experiment [5]; 0.68 µM and 0.47 µM in experiment [6]. Besides, the GI50 is > 10 µM and 27.8 µM in experiment [7]; > 10 µM and 13 µM in experiment [8]; 1.29 µM and 3.32 µM in experiment [9]; 0.958 µM and 0.683 µM in experiment [10]. The total growth inhibition concentration (TGI) in [1] is > 100 µM; in experiment [2], 0.731 µM and 3.02 µM; in [3], > 100 µM; in experiment [4], > 76.7 µM; in [5], > 100 µM; in experiment [6], > 75.1 µM. Moreover, the TGI was > 100 µM in experiment [7], > 71.5 µM in experiment [8], > 66.4 µM in experiment [9] and > 100 µM in experiment [10].

`COc1cc(Cl)cc(-c2nn(C(=O)NCCN3CCOCC3)cc2-c2ccncc2)c1`: the GI50 in [1] is 3.79 µM; in [2], 4.98 µM; in experiment [3], 4.12 µM; in experiment [4], 9.77 µM; in experiment [5], 7.61 µM; in experiment [6], 2.75 µM. For the same molecule, the GI50 in experiment [7] is 2.59 µM; in experiment [8] it was 5.92 µM; in experiment [9], 8.46 µM; in experiment [10], 4.7 µM. Further, the TGI is > 100 µM in [1]; > 100 µM in [2]; > 100 µM in experiment [3]; > 100 µM in experiment [4]; > 100 µM in [5]; 13.5 µM in experiment [6]. Also, the TGI in [7] is 13.1 µM; in experiment [8], > 100 µM; in [9], > 100 µM; in experiment [10], > 100 µM.

As to `COc1cc(C2c3cc4c(cc3[C@@H](Nc3ccc(C#N)cc3)C3COC(=O)[C@H]23)OCO4)cc(OC)c1O` (stereo partly drawn), the TGI in [1] was 18 µM; in experiment [2], 31.1 µM and 8.65 µM; in experiment [4] it was 9.66 µM and 2.69 µM and 17.2 µM; in experiment [6], 8.74 µM and 3.65 µM; in experiment [7] it was 4.68 µM and 2.68 µM and 2.06 µM; in experiment [8] it was 50 µM and > 100 µM. The TGI in experiment [9] was 17.4 µM and 4.49 µM. For the same molecule, the GI50 in experiment [2] was 1.76 µM; in [3] it was 0.987 µM and 1.85 µM; in experiment [4] it was 0.217 µM and 1.9 µM; in experiment [5], 1.51 µM; in [6] it was 0.336 µM; in [7], 0.911 µM and 0.54 µM. The GI50 was 0.468 µM in experiment [8], 1.62 µM in experiment [9] and 0.879 µM in [10].

As for `Cc1ccncc1.[O]=[Ge].[O]=[Ge].[O]=[Ge].[O]=[Ge].[O]=[Ge].[O]=[Ge][OH].[O]=[Ge][OH]`, the GI50 in experiment [1], in [2], in experiment [3], in [4], in [5] and in experiment [6] was > 100 µM in each case. Moreover, the GI50 in [7], in [8] and in experiment [9] was > 100 µM throughout. Further, the TGI in [1], in experiment [2], in experiment [3], in experiment [4], in [5] and in [6] was > 100 µM each time. Also, the TGI in experiment [7], in experiment [8] and in experiment [9] was > 100 µM in each case.

As for `CCCCCCCCCCCCOC(=S)NCCCC`, the total growth inhibition concentration (TGI) in experiment [1] was 37.2 µM; in experiment [2], 81.1 µM; in experiment [3], 41.3 µM; in [4] it was 64 µM; in experiment [5] it was 40.2 µM; in experiment [6], > 100 µM. The figures for the TGI in [8], in experiment [9] and in experiment [10] were 42.7 µM, > 100 µM and 37.2 µM, respectively.

Regarding `CN(C)S(=O)(=O)c1ccc(NC(=O)COC(=O)c2ccc(S(=O)(=O)N3CCCCC3)cc2)cc1`, the GI50 in experiment [1], in experiment [2], in [3], in experiment [4], in [6] and in experiment [7] was > 100 µM throughout. For the same molecule, the GI50 in experiment [8], in experiment [9] and in experiment [10] was > 100 µM in each case. For the same molecule, the TGI in [1], in experiment [2], in experiment [3], in [4], in [6] and in experiment [7] was > 100 µM throughout. Also, the TGI in [8], in [9] and in experiment [10] was > 100 µM throughout.

Regarding `Cc1ccc(/C=C2\CN(C(=O)OC(C)(C)C)C/C(=C\c3ccc(C)cc3)C2=O)cc1`, the GI50 in experiment [1] is 0.054 µM; in [2] it was 0.367 µM; in [3], 0.332 µM; in experiment [5] it was 0.918 µM; in experiment [6] it was 0.0685 µM; in [8], 0.0346 µM. Moreover, the GI50 in experiment [9] is > 40.7 µM; in [10], 0.489 µM. The TGI in experiment [1], in experiment [2], in [3], in experiment [4], in [5] and in experiment [6] was > 100 µM in each case. The TGI in [8], in [9] and in experiment [10] was > 100 µM each time.
